Reference: the supplement of paper PMC10307832

Legend:
Assay in all cases: relative viability (nuclei count vs DMSO), 5 days (fraction); higher = more cells survive
[1] = compound: C1CNCCC1C2=CC(=NN2)C3=CC=NC=C3 + Cc1nc(NC(=O)N2CCC[C@H]2C(N)=O)sc1-c1ccnc(C(C)(C)C(F)(F)F)c1 [Alpelisib] (partner 2 µM)
In short: (§1)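 Relative viability equals treated-well nuclei counts divided by vehicle-well nuclei counts. Counts came from 4× images of lung cancer cell lines grown in 1536-well plates for 5 days after pin-tool dosing on the day after seeding. Dosing used one drug alone or a fixed anchor-drug dose plus five library-drug doses (not always all listed) in √10 steps, and values are medians of duplicate plates.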

[2] = compound: O[C@H]1CC[C@H](Nc2ncc3nc(Nc4c(F)cc(F)cc4F)n([C@H]4CCOC4)c3n2)CC1 [Tanzisertib] + NC(=O)Nc1cc(-c2cccc(F)c2)sc1C(=O)N[C@H]1CCCNC1 [AZD7762] (partner 0.2 µM)
In short: as §1

[3] = compound: O[C@H]1CC[C@H](Nc2ncc3nc(Nc4c(F)cc(F)cc4F)n([C@H]4CCOC4)c3n2)CC1 [Tanzisertib] + CC1(C)CCC(c2ccc(Cl)cc2)=C(CN2CCN(c3ccc(C(=O)NS(=O)(=O)c4ccc(N[C@H](CCN5CCOCC5)CSc5ccccc5)c(S(=O)(=O)C(F)(F)F)c4)cc3)CC2)C1 [Navitoclax] (partner 0.5 µM)
In short: as §1

[4] = compound: C[C@@H](N)c1ccc(C(=O)Nc2ccnc3[nH]ccc23)cc1 + Cc1cc(Nc2cc(N3CCN(C)CC3)nc(Sc3ccc(NC(=O)C4CC4)cc3)n2)n[nH]1 [Tozasertib] (partner 0.1 µM)
In short: as §1

Cell Line	relative viability ([1]; first compound 0.08 µM)	relative viability ([1]; first compound 0.8 µM)	relative viability ([1]; first compound 2.53 µM)	relative viability ([1]; first compound 8 µM)	relative viability ([2]; first compound 0.08 µM)	relative viability ([2]; first compound 0.253 µM)	relative viability ([2]; first compound 0.8 µM)	relative viability ([2]; first compound 2.53 µM)	relative viability ([2]; first compound 8 µM)	relative viability ([3]; first compound 0.08 µM)	relative viability ([3]; first compound 0.253 µM)	relative viability ([3]; first compound 0.8 µM)	relative viability ([3]; first compound 2.53 µM)	relative viability ([3]; first compound 8 µM)	relative viability ([4]; first compound 0.04 µM)	relative viability ([4]; first compound 0.1265 µM)	relative viability ([4]; first compound 0.4 µM)	relative viability ([4]; first compound 4 µM)	relative viability ([4]; first compound 1.265 µM)
NCI-H1792	0.637	0.519	0.773	0.618	0.842	0.693	0.742	0.697	0.523	0.75	0.777	0.674	0.553	0.598					
NCI-H596	0.508	0.488	0.526	0.532	1.04	1.04	1.12	0.995	1.04	0.978	0.91	0.972	0.888	0.96	0.934	0.839	0.978	0.843	
RERF-LC-KJ	0.803	0.709	0.963	0.89	0.987	1.02	0.904	0.93	0.571	0.918	0.789	0.791	0.818	0.882	0.643	0.453	0.525	0.422	0.513
NCI-H322M	1.39	0.7	0.933	0.761	0.567	0.547	0.547	0.527	0.492	1.34	1.12	1.11	1.16	1.16	0.491	0.521	0.494	0.464	
COR-L 105	0.954	1.05	1.11	0.852						0.88	0.789	0.728	0.819	0.683	0.359	0.355	0.349	0.177	0.296
NCI-H2023	0.539	0.5	0.573	0.613						1.07	1.05	1.08	0.999	0.962	0.426	0.377	0.395	0.279	0.462
EBC-1	0.926	0.704	0.819	0.857						0.433	0.419	0.451	0.404	0.318					
ABC-1	0.997	0.857	1.19	1.13	0.914	0.822	0.871	0.649	0.611						0.173	0.158	0.203	0.164	
NCI-H520	0.88	0.666	0.831	0.658						1.12	1.1	1.1	1.01	1.11	0.52	0.462	0.448	0.424	0.535
NCI-H1650										1.19	1.22	1.17	1.16	1.12	0.386	0.483	0.394	0.37	0.291
SK-MES-1	0.961	0.688	0.903	0.885						1.31	1.25	1.26	1.22	1.21	0.881	0.921	0.854	0.629	0.825
NCI-H1563	0.709	0.932	0.95	0.989															
NCI-H1648					0.683	0.629	0.73	0.676	0.595						0.655	0.513	0.984	0.957	1.02
NCI-H1299	1.13	1.22	1.04	1.06						1.06	1.09	1.06	1.08	1.12					
A549	0.55	0.65	0.881	0.848						1.3	1.08	1.26	1.1	1.3					
NCI-H1623															0.443	0.452	0.459	0.462	0.475
NCI-H1703	0.345	0.268	0.347	0.278	0.146	0.13	0.118	0.135	0.113	1.12	0.837	1.05	1.03	0.927					
NCI-H661	0.879	0.647	0.799	0.733											0.286	0.355	0.378	0.363	0.34
NCI-H2009	1.25	1.16	1.13	1.14						1.22	1.27	1.19	1.27	1.22	0.736	0.704	0.643	0.544	0.623
NCI-H522					1.1	0.891	0.839	0.955	0.886						0.591	0.476	0.512	0.55	0.509
Calu-6	0.896	1.05	1.03	1.04						0.872	0.835	0.9	0.848	0.994					
ChaGo-K-1					0.926	0.89	0.856	0.839	0.796	1.01	1.08	1.1	0.79	0.683	0.223	0.219	0.221	0.21	0.246
COR-L23	0.821	0.925	0.969	0.736						1.15	1.05	0.979	1.24	1.03	0.232	0.188	0.204	0.144	0.202
LCLC-103H	1.05	0.966	1.05	1	0.877	0.735	0.769	0.8	0.754						0.502	0.482	0.51	0.388	0.421
SW 1573	0.722	0.625	0.774	0.755						1.02	0.994	0.974	1.05	0.909	0.121	0.208	0.174	0.156	0.174
